# Measurements from patent US7414036B2, “Compounds useful as A3 adenosine receptor agonists” (Muscagen Limited, priority 2002, dated 2008).
# “And” between values parts separate entries of the source, which are not always exact repeats. Identical values can stand only once.
# Tests used:
# [1] = target: T1, human A3 receptors (Homo sapiens, UniProt P0DMS8); assay: A3 receptor radioligand binding, displacement of [125I]-AB-MECA; details: for IC50: displacement of [125I]-AB-MECA (0.3 nM), human A3 receptors expressed in CHO cells, membranes, 60 min room temperature; for % Displacement of [125I]-AB-MECA: human A3 receptors in CHO cells
# T1 construct: expressed in transfected cells; host or cells: CHO cells (membrane preparations)
# T1 sequence (P0DMS8 1-318): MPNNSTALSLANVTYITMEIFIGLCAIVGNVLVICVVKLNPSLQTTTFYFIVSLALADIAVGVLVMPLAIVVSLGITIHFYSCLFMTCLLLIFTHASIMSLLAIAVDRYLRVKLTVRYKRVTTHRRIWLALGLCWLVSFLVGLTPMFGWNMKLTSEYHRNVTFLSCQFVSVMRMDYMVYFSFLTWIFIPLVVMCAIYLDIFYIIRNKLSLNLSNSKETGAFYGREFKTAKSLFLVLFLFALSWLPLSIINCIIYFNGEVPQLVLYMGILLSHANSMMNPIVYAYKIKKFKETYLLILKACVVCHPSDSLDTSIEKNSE
# [2] = empiric evidence; cited from earlier work
# [3] = tested on: guinea-pig isolated left atria; assay: Myocardial contractile dysfunction (stunning) after simulated ischaemia of isolated atria
# Protocol: The following experiment was carried out to evaluate the efficacy of compound 6 in protecting against myocardial contractile dysfunction (stunning) after simulated ischaemia of isolated atria.
# Guinea-pig isolated left atria were set up in tissue baths containing Krebs-bicarbonate solution gassed with 5% CO2 in oxygen at 37° C. and electrically paced at 2 Hz with pulses of threshold voltage +50% and 5 ms pulse width. Developed tension was recorded. After equilibrium, they were exposed to 30 min of simulated ischaemia by gassing with 5% CO2 in nitrogen and removing the glucose substrate which was replaced with choline chloride (7 mM) to maintain isotonicity. Pacing was continued throughout. After 30 min, the tissues were reoxygenated and glucose was returned. […] This partial recovery was the index of myocardial stunning. […] This timing was to simulate administration at the time of reperfusion induced by thrombolyic therapy following myocardial infarction.
# [4] = e.g. from about 70 mm Hg to about 90 mm Hg; cited from earlier work
# [5] = target: T2, A1 receptor (Cavia porcellus, UniProt P47745); assay: A1 receptor functional activity, negative inotropic response of isolated paced left atria; parameters: species or system guinea-pig; details: for IC25, negative inotropic action at A1 receptors of guinea-pig atria: concentration for 25% of the maximum response to NECA, cumulative concentration-response curves
# T2 construct: from tissue; host or cells: guinea-pig isolated paced left atria
# T2 sequence (P47745 1-326): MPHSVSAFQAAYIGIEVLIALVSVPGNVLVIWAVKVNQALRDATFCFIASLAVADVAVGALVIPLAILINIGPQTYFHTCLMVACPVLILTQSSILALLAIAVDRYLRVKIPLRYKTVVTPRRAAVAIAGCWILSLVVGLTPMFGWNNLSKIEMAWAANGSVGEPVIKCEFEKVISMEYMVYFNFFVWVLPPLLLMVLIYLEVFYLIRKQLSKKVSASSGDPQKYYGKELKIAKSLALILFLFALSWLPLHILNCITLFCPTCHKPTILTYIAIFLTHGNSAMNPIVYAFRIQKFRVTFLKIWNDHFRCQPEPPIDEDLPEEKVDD
# [6] = tested on: A2 receptor; assay: A2 receptor functional activity, relaxation of isolated trachea pre-contracted with carbachol; parameters: species or system guinea-pig; details: for IC25, relaxation at A2 receptors of guinea-pig trachea: concentration for 25% of the maximum response to NECA, trachea precontracted with carbachol (100 nM)
# [7] = pKa determination with co-solvent titrations; assay type: physicochemical; details: read-out: pKa (s)
# [8] = Partition coefficient, propylene glycol dipelargonate (PGDP)/water model; assay type: physicochemical; details: 21.2 °C; for Log P(s): partition solvent propylene glycol dipelargonate (PGDP)/water, neutral species
# Description: The partition measurements were based on a long chain ester (propylene glycol dipelargonate-PGDP)/water model.
compound,measurement,setting,value
N^6-(4-iodo-2-picolyl)-adenosine-5′-N-methyluronamide [Compound 2],IC50,[1],0.45 nM
CC(C)NCC(O)COc1cccc2ccccc12 (stereo not shown) [propranolol],"Effective partition after allowing for protonation, log10 PGDP/H2O scale",[2],~0.8
"CNC(=O)[C@H]1O[C@@H](n2cnc3c(NCc4cccc(C(C)=O)n4)ncnc32)C(O)C1O (stereo partly shown) [Compound 4, N^6-(6-acetyl-2-picolyl)adenosine-5′-N-methyluronamide]",melting point,,226 to 228 °C
same,IC50,[1],0.4 nM
CNC(=O)[C@H]1O[C@@H](n2cnc3c(NCc4cccc(I)c4)ncnc32)[C@H](O)[C@@H]1O [IB-MECA],"Maximum developed contractile tension (%), Post-ischaemic, Mean","[3]; IB-MECA 3 × 10^−7 M at reoxygenation, % of pre-ischaemic value, 6 experiments",66.5±6.5% and 66.5%
same,"Maximum developed contractile tension (%), Post-ischaemic","[3]; IB-MECA 3 × 10^−7 M at reoxygenation, % of pre-ischaemic value, single experiments",83.3% and 45.5% and 60% and 63% and 87.5%
same,Increase in basal or systemic blood pressure,[4],10-30%
"CNC(=O)[C@H]1O[C@@H](n2cnc3c(NCc4cc(C)ccn4)ncnc32)C(O)C1O (stereo partly shown) [Compound 1, N^6-(4-methyl-2-picolyl)-adenosine-5′-N-methyluronamide]",IC50,[1],2.2 nM
"CNC(=O)[C@H]1O[C@@H](n2cnc3c(NCc4cc(I)c5oc(N(C)C)nc5c4)nc(C#Cc4ccccc4)nc32)[C@H](O)[C@@H]1O [Compound 8, N^6-[(2-dimethylamino-7-iodo-1,3-benzoxazol-5-yl)-methyl]-2-(2-phenyl-1-ethynyl)-adenosine-5′-N-methyluronamide]",IC50,[1],21 to 80 nM
"CCNC(=O)[C@H]1O[C@@H](n2cnc3c(N)ncnc32)[C@H](O)[C@@H]1O [NECA, N-ethylcarboxamidoadenosine, reference compound]","IC25, negative inotropic action at A1 receptors of guinea-pig atria",[5],52 nM
same,"IC25, relaxation at A2 receptors of guinea-pig trachea",[6],940 nM
"CNC(=O)[C@H]1O[C@@H](n2cnc3c(NCc4ccc5oc(N(C)C)nc5c4)ncnc32)C(O)C1O (stereo partly shown) [Compound 7, N^6-[(2-Dimethylamino-1,3-benzoxazol-5-yl)-methyl]-adenosine-5′-N-methyluronamide]",melting point,,239 to 241 °C
same,IC50,[1],450 nM
same,pKa,[7],3.61
"CNC(=O)[C@H]1O[C@@H](n2cnc3c(NCc4cc(I)ccn4)nc(C#Cc4ccccc4)nc32)[C@H](O)[C@@H]1O [Compound 5, N^6-(4-iodo-2-picolyl)-2-(2-phenyl-1-ethynyl)-adenosine-5′-N-methyluronamide]",IC50,[1],31 to 45 nM
"CNC(=O)[C@H]1O[C@@H](n2cnc3c(NCc4ccccn4)ncnc32)C(O)C1O (stereo partly shown) [Compound 3, N^6-(2-picolyl)adenosine-5′-N-methyluronamide]",melting point,,84 to 86 °C
same,IC50,[1],6 nM
"CNC(=O)[C@H]1O[C@@H](n2cnc3c(NCc4cc(I)c5oc(N(C)C)nc5c4)ncnc32)C(O)C1O (stereo partly shown) [Compound 6, N^6-[(2-dimethylamino-7-iodo-1,3-benzoxazol-5-yl)-methyl]-adenosine-5′-N-methyluronamide]","IC25, negative inotropic action at A1 receptors of guinea-pig atria",[5],1000 nM
same,Selectivity for A3 receptors (radioligand binding) against A1 receptors (negative inotropy),[5]; ratio of atrial functional value to A3 binding IC50,6.25×10^6
same,IC50,"[5]; read-out: IC50, negative inotropic action at A1 receptors of guinea-pig atria",10000 nM
same,Log D,[8]; partition solvent PGDP/water,1.483
same,Log P(s),[8],1.484
same,Log P(s),[8]; listed as compound 10,1.48±0.03
same,Potency for binding to the human A3 receptor (in words),[1],picomolar potency
same,% Displacement of [125I]-AB-MECA,[1]; Concentration (Log M) −7,94%
same,% Displacement of [125I]-AB-MECA,[1]; Concentration (Log M) −9,79%
same,% Displacement of [125I]-AB-MECA,[1]; Concentration (Log M) −10,73%
same,% Displacement of [125I]-AB-MECA,[1]; Concentration (Log M) −11,68%
same,% Displacement of [125I]-AB-MECA,[1]; Concentration (Log M) −12,47%
same,A3 binding potency compared with IB-MECA,[1]; comparison of IC50 values of Table 1,approximately two orders of magnitude more potent
same,IC50,[1],0.0016 nM
same,"IC25, relaxation at A2 receptors of guinea-pig trachea",[6],9070 nM
same,Selectivity for A3 receptors (radioligand binding) against A2 receptors (tracheal relaxation),[6]; ratio of tracheal functional value to A3 binding IC50,5.6×10^6
same,"Maximum developed contractile tension (%), Post-ischaemic, Mean","[3]; Compound 6 5 × 10^−9 M at reoxygenation, % of pre-ischaemic value, n=3",84.0%
same,"Maximum developed contractile tension (%), Post-ischaemic, Mean","[3]; Compound 6 5 × 10^−9 M at reoxygenation, % of pre-ischaemic value, n=3, listed as compound 6",84.0±18.0%
same,"Maximum developed contractile tension, Post-ischaemic","[3]; Compound 6 5 × 10^−9 M introduced at reoxygenation after 30 min simulated ischaemia, single experiments",0.72 g and 0.42 g and 0.40 g
same,pKa,[7],3.66 ± 0.03
